Experimental data reported in patent publication US6362216B1, “Compounds which inhibit tryptase activity” (Array Biopharma Inc., priority 1998, dated 2002).

Key:
Assay type in all cases: biochemical
Human plasma plasmin = target: T1, Human plasma plasmin (Homo sapiens, UniProt P00747); test: Human plasma plasmin inhibition, Tosyl-Gly-Pro-Lys-pNA substrate; settings: 100 mM Tris-HCl, pH 7.4, 100 mM NaCl, 0.05% Triton X-100
T1 construct: from tissue; host or cells: human plasma
Description: (§1) Protease inhibition was assayed according to published procedures with minor modifications using various proteases and specific chromogenic peptide p-nitroanilide substrates. Assays were performed in Costar ultra-low cluster 96-well microtiter plate (Costar Corning Corp., Cambridge Mass.). Each protease was incubated with various concentrations of the test compound for 15 min. at 37° C. or as otherwise indicated, in specific assay buffer, and the residual activity was then measured by addition of the substrate. p-Nitroaniline produced by the proteolysis was determined by measuring the change in absorbance at 405 nm on a SpectraMAX 340 plate reader (Molecular devices, Sunnyvale, Calif.).
(§2) 1. The inhibition constant, Ki is calculated from individual data points using the equation for a tight-binding inhibitor (See Beith, “Proteinase Inhibitors-Proceedings of 2nd Int. Res. Conference”, Fritz, et al. eds., New York, p.4463-4469 (1974)): […]
(§3) 2. Other inhibition data (Ki>>[E]o), the Ki is calculated from using the equations for a competitive inhibitor: [formula]
Human plasma plasmin activity was determined by using Tosyl-Gly-Pro-Lys-pNA in 100 mM Tris-HCl, pH 7.4, 100 mM NaCl, 0.05% Triton X-100 (See Lottenberg, et al., Meth. Enzymol. 80, 341-361 (1981)).
The inhibition constant (Ki) of the test compounds against each proteolytic enzyme was determined according to Zitnik et al., Biochem. Biophys. […]

Human plasma kallikrein = target: T2, Human plasma kallikrein (Homo sapiens, UniProt P03952); test: Human plasma kallikrein inhibition, H-D-Prolyl-Phe-Arg-pNA substrate; settings: 50 mM Tris-HCl, pH 7.8, 200 mM NaCl, 0.05% BSA
T2 construct: from tissue; host or cells: human plasma
T2 sequence (P03952 391-638 limits assumed): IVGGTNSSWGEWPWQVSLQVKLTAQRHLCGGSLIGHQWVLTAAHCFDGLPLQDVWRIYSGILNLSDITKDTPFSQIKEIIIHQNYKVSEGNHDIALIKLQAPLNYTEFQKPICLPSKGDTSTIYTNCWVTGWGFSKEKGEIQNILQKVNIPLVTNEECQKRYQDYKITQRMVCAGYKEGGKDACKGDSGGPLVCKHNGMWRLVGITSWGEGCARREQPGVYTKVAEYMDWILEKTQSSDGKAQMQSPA
T2 sequence (P03952 20-390 partner limits assumed): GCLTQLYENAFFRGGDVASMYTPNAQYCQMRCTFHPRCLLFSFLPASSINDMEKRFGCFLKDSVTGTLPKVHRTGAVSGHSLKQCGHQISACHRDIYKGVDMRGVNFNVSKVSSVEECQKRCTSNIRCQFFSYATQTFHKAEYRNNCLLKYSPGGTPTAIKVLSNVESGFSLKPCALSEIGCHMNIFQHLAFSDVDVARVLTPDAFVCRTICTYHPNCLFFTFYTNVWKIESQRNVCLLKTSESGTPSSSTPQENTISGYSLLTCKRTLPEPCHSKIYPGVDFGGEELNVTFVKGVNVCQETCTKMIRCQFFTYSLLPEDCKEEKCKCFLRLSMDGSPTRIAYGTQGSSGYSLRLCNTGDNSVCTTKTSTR
Description: as §1, §2
(§4) 2. Other inhibition data (Ki>>[E]o), the Ki is calculated from using the equations for a competitive inhibitor: [formula] […]
(§5) Human plasma and r-tissue kallikrein activity were determined in 50 mM Tris-HCl1, pH 7.8, 200 mM NaCl, 0.05% BSA by using H-D-Prolyl-Phe-Arg-pNA and DL-Val-Leu-Arg-pNA, respectively (See Lottenberg, et al., Meth. Enzymol. 80, 341-361 (1981)). […]

[1] = target: T3, Bovine pancreatic Trypsin (TPCK-treated) (Bos taurus, UniProt P00760); test: Bovine pancreatic trypsin inhibition, N-α-Benzoyl-L-Arg-pNA substrate; settings: the 5th table, unit inferred
T3 construct: from tissue; host or cells: bovine pancreas
T3 sequence (P00760 24-246): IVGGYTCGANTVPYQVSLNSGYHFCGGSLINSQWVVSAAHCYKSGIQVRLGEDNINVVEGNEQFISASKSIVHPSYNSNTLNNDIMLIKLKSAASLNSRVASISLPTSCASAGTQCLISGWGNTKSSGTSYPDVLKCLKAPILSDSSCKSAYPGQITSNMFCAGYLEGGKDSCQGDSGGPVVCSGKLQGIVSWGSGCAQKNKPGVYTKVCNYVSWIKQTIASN
Description: as §1
(§6) 1. The inhibition constant, Ki is calculated from individual data points using the equation for a tight-binding inhibitor (See Beith, “Proteinase Inhibitors-Proceedings of 2nd Int. Res. Conference”, Fritz, et al. eds., New York, p.4463-4469 (1974)):
(§7) The Ki values are obtained by correcting Ki ′ values for the effect of substrate concentration according to: [formula]
as §3
C. Bovine Pancreatic Trypsin
Bovine pancreatic Trypsin (TPCK-treated) activity was determined by using N-α-Benzoyl-L-Arg-pNA in 50 mM Tris-HCl, pH 8.2, 20 mM CaCl2 (See Somorin, et al., J. Biochem. 85, 157-162 (1979)).
(§8) The inhibition constant (Ki) of the test compounds against each proteolytic enzyme was determined according to Zitnik et al., Biochem. Biophys. Res. Commun. 232, 687-697 (1997)).

[2] = target: Human r-tissue kallikrein (Homo sapiens, UniProt P06870); test: Human r-tissue kallikrein inhibition, DL-Val-Leu-Arg-pNA substrate; settings: 50 mM Tris-HCl, pH 7.8, 200 mM NaCl, 0.05% BSA
Chain of Human r-tissue kallikrein (P06870 25-262): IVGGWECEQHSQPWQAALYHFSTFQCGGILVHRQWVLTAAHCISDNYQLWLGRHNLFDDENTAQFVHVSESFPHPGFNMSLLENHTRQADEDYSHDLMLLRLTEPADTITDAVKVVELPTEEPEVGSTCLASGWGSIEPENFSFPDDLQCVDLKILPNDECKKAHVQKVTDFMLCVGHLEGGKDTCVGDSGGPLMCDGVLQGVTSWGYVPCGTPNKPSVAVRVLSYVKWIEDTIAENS
Description: as §1, §2, §4, §5

Human lung tryptase = target: T4, Human lung tryptase; test: Human lung tryptase inhibition, chromogenic GPR-pNA substrate
T4 construct: Human lung tryptase purchased from Cortex Biochem (San Leandro, Calif.) was purified further on a Superdex 200 gel-filtration column
Description: as §1, §6
vi/vo=[((Ki′+[I]+[E]o)^2−4[I]o[E]o)^½(Ki′+[I]o−[E]o)]/2[E]o
where Ki′ is apparent inhibition constant; vi and vo are the inhibited and uninhibited rates, respectively; [I]o and [E]o are the total concentrations of inhibitor and enzyme, respectively.
[note: [E]o is determined by active site titration of enzyme]
as §7, §3
IC50 is determined by fitting the individual inhibition data point to Sigmoid or four-parameter curve-fit equations.
Human lung tryptase purchased from Cortex Biochem (San Leandro, Calif.) was purified further on a Superdex 200 gel-filtration column. The active-site concentration of the enzyme was determined by spectrophotometric titration with 4-nitrophenyl 4′-guanidinobenzoate according to Schwartz, et al., J. Immunol., 114, 2304-2311 (1990). Tryptase activity was measured according to the procedures of Schwartz, et al., J. Biol. Chem., 261, 7372-7379 (1986) (See also, Schwartz, L. B., Methods In Enzymology, 244, 88 (1994)) with minor modifications, using Tosyl-Gly-Pro-Arg-p-nitroanilide (“GPR-pNA”, Sigma Chemical Co., St. Louis, Mo., T-1637) as a chromogenic substrate. The reaction was performed in 50 mM Tris-HCl, pH 8.0, containing 150 mM NaCl and 0.02% Triton X-100 at 37° C. in Costar ultra-low cluster 96-well microtiter plates (Costar Corning Corp., Cambridge, Mass.). The amount of pNA produced by tryptase was determined by measuring the change in absorbance at 405 nm on a SpectraMAX 340 plate reader (Molecular devices, Sunnyvale, Calif.). The Km for the substrate was determined by Lineweaver-Burk analysis from initial velocities of substrate hydrolysis. The inhibition assay was carried out in a total volume of 200 μL. Tryptase (30 μL-final concentration 1 nM) was incubated with various concentrations of sample compound (50 μL) to be tested in the above assay buffer for 5 min. The reaction was started by the addition of substrate GPR-pNA (40 μL-final concentration 320 μM), and the residual activity was measured after 15 min. of incubation. The inhibition constant, Ki, was determined by fitting the inhibition data to a two-site competitive binding equation using data analysis program GraphPad PRISM (GraphPad Software, Inc., San Diego, Calif.).
as §8

T1 sequence (P00747 581-810 limits assumed): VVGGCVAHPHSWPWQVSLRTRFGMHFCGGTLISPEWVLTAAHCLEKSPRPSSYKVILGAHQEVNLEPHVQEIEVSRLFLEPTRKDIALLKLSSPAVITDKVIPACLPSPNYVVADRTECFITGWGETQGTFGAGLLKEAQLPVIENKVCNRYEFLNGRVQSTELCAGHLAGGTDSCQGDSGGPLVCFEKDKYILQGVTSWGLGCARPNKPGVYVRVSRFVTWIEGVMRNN
T1 sequence (P00747 97-580 partner limits assumed): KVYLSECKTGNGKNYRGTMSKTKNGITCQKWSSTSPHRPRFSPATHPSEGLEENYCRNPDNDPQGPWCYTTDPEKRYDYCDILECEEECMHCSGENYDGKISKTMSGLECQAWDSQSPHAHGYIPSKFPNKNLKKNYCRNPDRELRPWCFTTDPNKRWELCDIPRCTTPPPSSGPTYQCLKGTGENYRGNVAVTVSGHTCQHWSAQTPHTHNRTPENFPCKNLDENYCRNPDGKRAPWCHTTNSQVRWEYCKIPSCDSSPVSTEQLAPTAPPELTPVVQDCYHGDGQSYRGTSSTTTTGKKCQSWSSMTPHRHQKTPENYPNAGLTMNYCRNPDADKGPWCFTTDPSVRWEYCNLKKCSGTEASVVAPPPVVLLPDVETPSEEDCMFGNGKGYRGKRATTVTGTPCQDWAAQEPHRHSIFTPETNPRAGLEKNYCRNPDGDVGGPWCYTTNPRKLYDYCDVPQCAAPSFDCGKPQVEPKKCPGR

Ki (Human plasma plasmin): 2700 nM
Ki (Human plasma kallikrein): 1600 nM
Ki [1]: 2400 nM
Ki [2]: > 100000 nM
Ki (Human lung tryptase; the 5th table, unit inferred): 41 nM
Ki (Human lung tryptase; tryptase 1 nM, GPR-pNA 320 μM, 50 mM Tris-HCl pH 8.0, 37° C.): 41 nM
SMILES: Cc1cc2cc(CNC(=O)Cc3cc4cc(C(=N)N)ccc4s3)ccc2[nH]1 [drawing 17 Benzthiophene 5-carboxamidine n=1]
